What was measured:
Human recombinant sEH = biological target: T1, Human recombinant sEH (Homo sapiens, UniProt P34913); test: Cell-free sEH activity (PHOME fluorescence); type: biochemical; details: human isolated sEH
T1 construct: made in house; host or cells: Sf9 insect cells (recombinant baculovirus)
T1 sequence (P34913 1-555): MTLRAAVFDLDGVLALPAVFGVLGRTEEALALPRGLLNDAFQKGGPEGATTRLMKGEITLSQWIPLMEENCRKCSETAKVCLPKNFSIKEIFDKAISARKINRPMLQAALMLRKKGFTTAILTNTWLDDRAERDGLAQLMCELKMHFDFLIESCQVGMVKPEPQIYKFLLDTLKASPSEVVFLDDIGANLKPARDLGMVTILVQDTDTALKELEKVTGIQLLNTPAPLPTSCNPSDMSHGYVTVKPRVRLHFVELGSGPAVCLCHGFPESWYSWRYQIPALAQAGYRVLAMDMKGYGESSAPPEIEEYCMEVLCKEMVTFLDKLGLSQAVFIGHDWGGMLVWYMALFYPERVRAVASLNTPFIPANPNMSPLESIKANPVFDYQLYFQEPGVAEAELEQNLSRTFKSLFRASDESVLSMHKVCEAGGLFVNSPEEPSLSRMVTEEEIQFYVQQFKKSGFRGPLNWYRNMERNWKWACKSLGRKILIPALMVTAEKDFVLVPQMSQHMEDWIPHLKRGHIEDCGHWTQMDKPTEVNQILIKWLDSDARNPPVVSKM
Method: Human recombinant sEH was expressed in Sf9 insect cells and purified by affinity chromatography. […] Elution with 4-fluorochalcone oxide in PBS pH 7.4 with 1 mM dithiothreitol and 1 mM EDTA yielded sEH, which was dialyzed and concentrated. Purified sEH (60 ng) in 25 mM Tris HCl pH 7 with 0.1 mg/mL bovine serum albumin (BSA) was preincubated with the vehicle (DMSO) or test compounds for 1 min at room temperature. The sEH substrate PHOME (20 μM, Cayman Chemicals) was added to start the enzymatic reaction, which was stopped after 60 min in the dark by the addition of ZnSO4 (200 mM).

5-LOX [1] = biological target: T2, 5-LOX (Homo sapiens, UniProt P09917); test: Cell-free 5-LOX activity assay; type: biochemical; set-up: made in house; host or cells: Escherichia coli Bl21 (DE3); details: for IC50: human isolated 5-LOX; for inhibition of 5-LOX activity, times lower than 6: isolated 5-LOX, relative to compound 6
T2 sequence (P09917 1-674): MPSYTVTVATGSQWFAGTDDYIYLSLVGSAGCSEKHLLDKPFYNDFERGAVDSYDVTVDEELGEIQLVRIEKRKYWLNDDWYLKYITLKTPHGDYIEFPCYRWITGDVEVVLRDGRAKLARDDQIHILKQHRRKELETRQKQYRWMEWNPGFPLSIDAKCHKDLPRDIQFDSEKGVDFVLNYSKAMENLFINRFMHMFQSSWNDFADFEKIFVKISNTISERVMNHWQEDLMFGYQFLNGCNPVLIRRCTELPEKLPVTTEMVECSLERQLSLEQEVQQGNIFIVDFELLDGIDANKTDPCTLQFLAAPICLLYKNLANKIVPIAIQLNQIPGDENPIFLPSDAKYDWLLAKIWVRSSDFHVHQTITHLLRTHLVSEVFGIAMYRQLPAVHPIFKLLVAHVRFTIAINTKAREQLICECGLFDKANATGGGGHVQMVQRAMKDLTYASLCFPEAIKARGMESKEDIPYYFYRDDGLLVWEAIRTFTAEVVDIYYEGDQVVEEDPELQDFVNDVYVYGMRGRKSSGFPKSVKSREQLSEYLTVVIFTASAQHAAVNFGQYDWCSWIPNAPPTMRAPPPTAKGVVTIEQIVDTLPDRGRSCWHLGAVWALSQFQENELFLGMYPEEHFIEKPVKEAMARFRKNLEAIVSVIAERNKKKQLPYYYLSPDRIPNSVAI
Method: Human recombinant 5-LOX was expressed in Escherichia coli Bl21 (DE3) cells that were transformed with the plasmid pT3-5LO (wt 5-LOX) and purified on an adenosine triphosphate (ATP)-agarose column by affinity chromatography.[40],[41] In a first step, E. coli was lysed in 50 mM triethanolamine/HCl pH 8.0 with ethylenediamine tetraacetic acid (EDTA) (5 mM), soybean trypsin inhibitor (60 μg/mL), phenylmethanesulfonyl fluoride (1 mM), dithiothreitol (1 mM), and lysozyme (1 mg/mL) and sonicated 3 times for 15 s. The homogenate was centrifuged at 40,000g for 20 min at 4 °C. The supernatant was transferred to an ATP-agarose column (Sigma-Aldrich, Deisenhofen, Germany), which was sequentially washed with phosphate-buffered saline (PBS) pH 7.4, 1 mM EDTA, 50 mM phosphate buffer pH 7.4, 0.5 M NaCl, 1 mM EDTA, and finally 50 mM phosphate buffer pH 7.4 plus 1 mM EDTA. The enzyme was eluted with 50 mM phosphate buffer pH 7.4, 1 mM EDTA, and 20 mM ATP.
5-LOX product formation was started by the addition of 20 μM arachidonic acid (Sigma-Aldrich) and CaCl2 (2 mM) and stopped by the addition of an equal volume of ice-cold methanol containing PGB1 (200 ng) as internal standard after 10 min at 37 °C.

5-LOX [2] = biological target: T2, 5-LOX; test: 5-LOX product formation in human activated PMNL (A23187); type: cell-based; set-up: Freshly isolated PMNL (5 × 10^6) suspended in PBS pH 7.4 with 1 mg/mL glucose were preincubated with the test compounds; endogenous in cells; host or cells: human PMNL from donor blood; remaining activity: dose or concentration left out as unconfirmed; details: for remaining activity at 10 µM / IC50: human activated PMNL; for remaining activity at 10 µM: read-out: 5-LOX residual activity in PMNL (%) at 10 μM; for remaining activity: PMNL, read-out: 5-LO residual activity in PMNL (%)
Method: Human PMNL were freshly isolated from leukocyte concentrates that were obtained from the Institute for Transfusion Medicine of the University Hospital Jena (Germany). […] These volunteers regularly donated blood (every 8–12 weeks) and were physically inspected by a clinician. […] Leukocytes were concentrated by centrifugation (4000g/20 min/20 °C) of freshly withdrawn blood. […] PMNL were obtained from the cell pellet. […] The reaction was stopped with an equal volume of methanol containing PGB1 (200 ng) as internal standard. Major 5-LOX products (all-trans isomers of LTB and 5-HETE, and additionally LTB4) were extracted and analyzed by RP-HPLC as described for the determination of cell-free 5-LOX activity.

IC50 (Human recombinant sEH)	IC50 (5-LOX [1])	remaining activity at 10 µM (5-LOX [2])	remaining activity (5-LOX [2])	IC50 (5-LOX [2])	inhibition of 5-LOX activity, times lower than 6 (5-LOX [1])	Structure (SMILES)
0.0533 ± 0.0159 µM	> 1 µM	41.2 ± 7.8%	41.2 ± 7.8%	8.15 ± 1.86 µM		O=C(O)CCCn1ccc2cc(NC(=O)NCC34C[C@H]5C[C@@H](C3)C[C@@H](C4)C5)ccc21 [Compound 38, 4-(5-(3-(((3R,5R,7R)-Adamantan-1-yl)methyl)ureido)-1H-indol-1-yl)butanoic Acid]
0.0213 ± 0.0119 µM	> 1 µM	30.1 ± 4.8%	30.1 ± 4.8%	6.83 ± 0.84 µM		COC(=O)CCCn1ccc2cc(NC(=O)NCC34C[C@H]5C[C@@H](C3)C[C@@H](C4)C5)ccc21 [Compound 32, Methyl 4-(5-(3-(((3R,5R,7R)-Adamantan-1-yl)methyl)ureido)-1H-indol-1-yl)butanoate]
0.288 ± 0.22 µM	> 1 µM					Fc1ccc(CN2CCc3cc(NC(=S)NCC45C[C@H]6C[C@@H](C4)C[C@@H](C5)C6)ccc32)cc1 [Compound 10, 1-(((3R,5R,7R)-Adamantan-1-yl)methyl)-3-(1-(4-fluorobenzyl)indolin-5-yl)thiourea]
0.0241 ± 0.0041 µM	> 1 µM	57.7 ± 9.6%	57.7 ± 9.6%			O=C(NCC12C[C@H]3C[C@@H](C1)C[C@@H](C2)C3)Nc1ccc2c(c1)CCN2Cc1ccc(C(=O)O)cc1 [Compound 14, 4-((5-(3-(((3R,5R,7R)-Adamantan-1-yl)methyl)ureido)indolin-1-yl)methyl)benzoic Acid]
0.0151 ± 0.0077 µM	> 1 µM	2.1 ± 1.1%	2.1 ± 1.1%	4.4 ± 0.42 µM		O=C(NCC12C[C@H]3C[C@@H](C1)C[C@@H](C2)C3)Nc1ccc2c(ccn2Cc2ccc(C(=O)O)cc2)c1 [Compound 37, 4-((5-(3-(((3R,5R,7R)-Adamantan-1-yl)methyl)ureido)-1H-indol-1-yl)methyl)benzoic Acid]
0.285 ± 0.0312 µM	0.074 ± 0.018 µM	53.2 ± 9.9%	53.2 ± 9.9%			O=C(Nc1ccc2c(c1)CCN2Cc1ccc(F)cc1)C12C[C@H]3C[C@@H](C1)C[C@@H](C2)C3 [Compound 3, (3R,5R,7R)-N-(1-(4-Fluorobenzyl)indolin-5-yl)adamantane-1-carboxamide]
0.0044 ± 0.0005 µM	> 1 µM	80.9 ± 1.7%	80.9 ± 1.7%			O=C(NCC12C[C@H]3C[C@@H](C1)C[C@@H](C2)C3)Nc1ccc2c(ccn2-c2ccc(F)cc2)c1 [Compound 45, 1-(((3R,5R,7R)-Adamantan-1-yl)methyl)-3-(1-(4-fluorophenyl)-1H-indol-5-yl)urea]
1.8 ± 0.46 µM	0.171 ± 0.066 µM	2.5 ± 2.5%	2.5 ± 2.5%	2.56 µM	around 2.5 times	CC1(C)C2CC[C@@]1(CS(=O)(=O)Nc1ccc3c(c1)CCN3Cc1ccc(F)cc1)C(=O)C2 [Compound 4, 1-((1S)-7,7-Dimethyl-2-oxobicyclo[2.2.1]heptan-1-yl)-N-(1-(4-fluorobenzyl)indolin-5-yl)methanesulfonamide]
> 10 µM	> 1 µM	71.1 ± 6.6%	71.1 ± 6.6%			CN1CCCN(CCNC(=O)Nc2ccc3c(c2)CCN3Cc2ccc(F)cc2)CC1 [Compound 8, 1-(1-(4-Fluorobenzyl)indolin-5-yl)-3-(2-(4-methyl-1,4-diazepan-1-yl)ethyl)urea]
0.0134 ± 0.0031 µM	> 1 µM		97.8 ± 0.3%			O=C(Nc1ccc2c(ccn2Cc2ccc(F)cc2)c1)NC12C[C@H]3C[C@@H](C1)C[C@@H](C2)C3 [Compound 33, 1-((3S,5S,7S)-Adamantan-1-yl)-3-(1-(4-fluorobenzyl)-1H-indol-5-yl)urea]
0.02 ± 0.0038 µM	> 1 µM	92.6 ± 4%	92.6 ± 4%			O=C(NCC12C[C@H]3C[C@@H](C1)C[C@@H](C2)C3)Nc1ccc2c(c1)c1ccccc1n2Cc1ccc(F)cc1 [Compound 48, 1-(((3R,5R,7R)-Adamantan-1-yl)methyl)-3-(9-(4-fluorobenzyl)-9H-carbazol-3-yl)urea]
0.0361 ± 0.0075 µM	0.148 ± 0.028 µM	56.3 ± 5.1%	56.3 ± 5.1%		~2 times	O=C(NCc1cccc2ccccc12)Nc1ccc2c(c1)CCN2Cc1ccc(F)cc1 [Compound 7, 1-(1-(4-Fluorobenzyl)indolin-5-yl)-3-(naphthalen-1-ylmethyl)urea]
0.0114 ± 0.0036 µM	> 1 µM	65.1 ± 9.4%	65.1 ± 9.4%			COC(=O)c1ccc(Cn2ccc3cc(NC(=O)NCC45C[C@H]6C[C@@H](C4)C[C@@H](C5)C6)ccc32)cc1 [Compound 29, Methyl 4-((5-(3-(((3R,5R,7R)-Adamantan-1-yl)methyl)ureido)-1H-indol-1-yl)methyl)benzoate]
0.0111 ± 0.006 µM	0.078 ± 0.053 µM	79.7 ± 2.8%	73.7 ± 2.8%			O=C(NCC12C[C@H]3C[C@@H](C1)C[C@@H](C2)C3)Nc1ccc2c(c1)CCN2Cc1ccc(F)cc1 [Compound 5, 1-(((3R,5R,7R)-Adamantan-1-yl)methyl)-3-(1-(4-fluorobenzyl)indolin-5-yl)urea]
0.0149 ± 0.0046 µM	> 1 µM	6.6 ± 4%	6.6 ± 4%	6.19 ± 2.41 µM		NCc1ccc(Cn2ccc3cc(NC(=O)NCC45C[C@H]6C[C@@H](C4)C[C@@H](C5)C6)ccc32)cc1 [Compound 42, 1-(((3R,5R,7R)-Adamantan-1-yl)methyl)-3-(1-(4-(aminomethyl)benzyl)-1H-indol-5-yl)urea]
0.0272 ± 0.0118 µM	> 1 µM	51.8 ± 13%	51.8 ± 13%			NCCCn1ccc2cc(NC(=O)NCC34CC5CC(CC(C5)C3)C4)ccc21 [Compound 39, 1-(((3R,5R,7R)-Adamantan-1-yl)methyl)-3-(1-(3-aminopropyl)-1H-indol-5-yl)urea]

From paper PMC10350924, “Design, Synthesis, and Pharmacological Characterization of a Potent Soluble Epoxide Hydrolase Inhibitor for the Treatment of Acute Pancreatitis” (Journal of Medicinal Chemistry, 2023)
